The text below walks through data of patent US10787450B2 (BRISTOL-MYERS SQUIBB COMPANY, priority 2016, dated 2020).

pIC50: −log10 of the molar value. Some results are limits rather than exact numbers.

Sequence of ROCK2 (O75116 whole entry, species assumed): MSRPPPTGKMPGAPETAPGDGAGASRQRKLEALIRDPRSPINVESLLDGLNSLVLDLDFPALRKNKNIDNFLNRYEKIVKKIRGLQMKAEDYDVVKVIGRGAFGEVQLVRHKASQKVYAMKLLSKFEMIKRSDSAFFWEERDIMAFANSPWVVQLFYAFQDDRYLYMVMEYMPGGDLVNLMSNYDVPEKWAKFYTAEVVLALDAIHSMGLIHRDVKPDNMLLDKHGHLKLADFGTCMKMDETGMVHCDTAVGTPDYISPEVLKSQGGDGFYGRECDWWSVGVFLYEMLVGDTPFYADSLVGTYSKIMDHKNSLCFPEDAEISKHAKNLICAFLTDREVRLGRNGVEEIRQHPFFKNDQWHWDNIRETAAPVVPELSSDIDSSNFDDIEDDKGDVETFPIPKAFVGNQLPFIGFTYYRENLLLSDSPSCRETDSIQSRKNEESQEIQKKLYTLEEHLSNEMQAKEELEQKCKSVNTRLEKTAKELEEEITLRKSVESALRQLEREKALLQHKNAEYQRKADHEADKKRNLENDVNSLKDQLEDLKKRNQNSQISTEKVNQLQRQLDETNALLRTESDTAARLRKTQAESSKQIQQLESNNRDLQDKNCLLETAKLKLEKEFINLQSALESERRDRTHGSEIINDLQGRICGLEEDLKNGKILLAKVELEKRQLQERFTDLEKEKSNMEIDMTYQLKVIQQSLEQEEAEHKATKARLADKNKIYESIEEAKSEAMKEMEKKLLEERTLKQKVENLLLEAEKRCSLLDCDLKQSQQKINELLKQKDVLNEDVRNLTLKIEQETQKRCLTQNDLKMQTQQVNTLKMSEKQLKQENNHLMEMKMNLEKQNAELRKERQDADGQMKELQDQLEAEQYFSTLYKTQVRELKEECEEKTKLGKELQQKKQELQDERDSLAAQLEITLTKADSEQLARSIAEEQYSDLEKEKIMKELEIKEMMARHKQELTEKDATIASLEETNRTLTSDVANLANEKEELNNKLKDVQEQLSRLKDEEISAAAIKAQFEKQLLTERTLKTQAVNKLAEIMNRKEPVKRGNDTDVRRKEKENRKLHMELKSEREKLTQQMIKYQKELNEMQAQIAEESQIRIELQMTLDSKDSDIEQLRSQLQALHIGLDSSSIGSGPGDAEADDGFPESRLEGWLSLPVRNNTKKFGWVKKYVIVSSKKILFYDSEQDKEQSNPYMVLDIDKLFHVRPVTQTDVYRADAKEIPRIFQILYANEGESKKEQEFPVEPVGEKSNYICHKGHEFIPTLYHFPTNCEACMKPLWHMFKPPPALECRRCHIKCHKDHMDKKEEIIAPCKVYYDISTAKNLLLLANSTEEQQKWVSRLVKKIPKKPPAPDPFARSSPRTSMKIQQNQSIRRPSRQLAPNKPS

This test addresses ROCK2 (Homo sapiens (Human), UniProt O75116). The experiment in a line: ROCK2 kinase inhibition assay (FITC peptide substrate, LABCHIP 3000 Reader). The following applies: 5 μM ATP, 1.5 μM peptide substrate. The test is classed as biochemical. The essentials:
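Reaction in 20 mM HEPES pH 7.5, 20 mM MgCl2, 0.015% Brij-35, 4 mM DTT with 5 μM ATP and 1.5 μM FITC-AHA-AKRRRLSSLRA-OH peptide, started with Rho kinase, DMSO <2%. EDTA-stopped; phospho and non-phospho peptide separated by mobility shift. IC50 from dose-response curve fit.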
Take `CCc1nc(N2CC3(CCN(C(=O)CO)CC3)N(Cc3cccc(F)c3C)C2=O)ccc1-c1cn[nH]c1` [Example 181, 3-(6-ethyl-5-(1H-pyrazol-4-yl)pyridin-2-yl)-1-(3-fluoro-2-methylbenzyl)-8-(2-hydroxyacetyl)-1,3,8-triazaspiro[4.5]decan-2-one]: the pIC50 was more than 8.52.

The compound `CCc1nc(N2CC3(CCN(C(C)=O)CC3)N(Cc3cccc(F)c3C)C2=O)ccc1-c1cn[nH]c1` [Example 87, 8-acetyl-3-(6-ethyl-5-(1H-pyrazol-4-yl)pyridin-2-yl)-1-(3-fluoro-2-methylbenzyl)-1,3,8-triazaspiro[4.5]decan-2-one] showed a pIC50 of more than 8.52.

Consider `CNC(=O)c1cccc(CN2C(=O)N(c3ccc(-c4cn[nH]c4)cc3)CC23CCOCC3)c1` [Example 31, 3-((3-(4-(1H-pyrazol-4-yl)phenyl)-2-oxo-8-oxa-1,3-diazaspiro[4.5]decan-1-yl)methyl)-N-methylbenzamide], for which the pIC50 was 6.60 to 7.52.

As to `CC(=O)N1CCC2(CC1)CN(c1ccc(-c3cn[nH]c3)cc1)C(=O)N2Cc1cccc(F)c1C` [Example 82, 3-(4-(1H-pyrazol-4-yl)phenyl)-8-acetyl-1-(3-fluoro-2-methylbenzyl)-1,3,8-triazaspiro[4.5]decan-2-one], the pIC50 was 7.52 to 8.52.

The compound `COc1cccc(CN2C(=O)N(c3ccc(-c4cn[nH]c4)cn3)CC23CCNCC3)c1` [Example 73, 3-(5-(1H-pyrazol-4-yl)pyridin-2-yl)-1-(3-methoxybenzyl)-1,3,8-triazaspiro[4.5]decan-2-one] had a pIC50 of 7.52 to 8.52.

For `O=C1N(c2ccc(-c3cn[nH]c3)cc2)CC2(CCNCC2)N1Cc1cccc(OC(F)F)c1` [Example 61, 3-(4-(1H-pyrazol-4-yl)phenyl)-1-(3-(difluoromethoxy)benzyl)-1,3,8-triazaspiro[4.5]decan-2-one], the pIC50 was 7.52 to 8.52.

Compound `COc1cccc(CN2C(=O)N(c3ccc(-c4cn[nH]c4)c(OC)n3)CC23CCN(CC(C)O)CC3)c1` (stereo not drawn) [Example 147, 8-(2-hydroxypropyl)-3-(6-methoxy-5-(1H-pyrazol-4-yl)pyridin-2-yl)-1-(3-methoxybenzyl)-1,3,8-triazaspiro[4.5]decan-2-one] had a pIC50 of more than 8.52.

`COc1cccc(CN2C(=O)N(c3ccc(-c4cn[nH]c4)cc3)CC23CCN(CC2CCOC2)CC3)c1` (stereo not drawn) [Example 114, 3-(4-(1H-pyrazol-4-yl)phenyl)-1-(3-methoxybenzyl)-8-((tetrahydrofuran-3-yl)methyl)-1,3,8-triazaspiro[4.5]decan-2-one] gave a pIC50 of more than 8.52.

`O=C1N(c2ccc(-c3cn[nH]c3)cc2)CC2(CCOCC2)N1Cc1cccc(OC(F)(F)F)c1` [Example 20, 3-(4-(1H-pyrazol-4-yl)phenyl)-1-(3-(trifluoromethoxy)benzyl)-8-oxa-1,3-diazaspiro[4.5]decan-2-one] showed a pIC50 of 6.60 to 7.52.

In the case of `COc1cccc(CN2C(=O)N(c3ccc(-c4cn[nH]c4)cc3)CC23CCNCC3)c1` [Example 57, 3-(4-(1H-pyrazol-4-yl)phenyl)-1-(3-methoxybenzyl)-1,3,8-triazaspiro[4.5]decan-2-one], the negative logarithm of the IC50 (pIC50) is more than 8.52.

As to `CCc1nc(N2CC3(CCN(C(=O)OC(C)(C)C)CC3)N(Cc3cccc(OC)c3)C2=O)ccc1-c1cn[nH]c1` [Example 53, tert-butyl 3-(6-ethyl-5-(1H-pyrazol-4-yl)pyridin-2-yl)-1-(3-methoxybenzyl)-2-oxo-1,3,8-triazaspiro[4.5]decane-8-carboxylate], the pIC50 was 6.60 to 7.52.

As for `CCc1nc(N2CC3(CCN(CC(C)(C)O)CC3)N(Cc3cc(F)cc(OC)c3)C2=O)ccc1-c1cn[nH]c1` [Example 155, 3-(6-ethyl-5-(1H-pyrazol-4-yl)pyridin-2-yl)-1-(3-fluoro-5-methoxybenzyl)-8-(2-hydroxy-2-methylpropyl)-1,3,8-triazaspiro[4.5]decan-2-one], the pIC50 is more than 8.52.

Compound `COc1cccc(CN2C(=O)N(c3ccc(-c4cn[nH]c4)cc3)CC23CCN(C(N)=O)CC3)c1` [Example 92, 3-(4-(1H-pyrazol-4-yl)phenyl)-1-(3-methoxybenzyl)-2-oxo-1,3,8-triazaspiro[4.5]decane-8-carboxamide] showed a pIC50 of more than 8.52.

The compound `COc1cccc(CN2C(=O)N(c3ccc(-c4cn[nH]c4)cc3)CC23CCN(C(=O)OCC(C)(C)C)CC3)c1` [Example 97, neopentyl 3-(4-(1H-pyrazol-4-yl)phenyl)-1-(3-methoxybenzy1)-2-oxo-1,3,8-triazaspiro[4.5]decane-8-carboxylate] had a pIC50 of 7.52 to 8.52.

For the compound `O=C1N(c2ccc(-c3cn[nH]c3)cc2)CC2(CCOCC2)N1Cc1ccccc1F` [Example 12, 3-(4-(1H-pyrazol-4-yl)phenyl)-1-(2-fluorobenzyl)-8-oxa-1,3-diazaspiro[4.5]decan-2-one], the pIC50 was 6.60 to 7.52.

As for `CCc1nc(N2CC3(CCN(CC(C)(C)O)CC3)N(Cc3cccc(OC)c3)C2=O)ccc1-c1cn[nH]c1` [Example 152, 3-(6-ethyl-5-(1H-pyrazol-4-yl)pyridin-2-yl)-8-(2-hydroxy-2-methylpropyl)-1-(3-methoxybenzyl)-1,3,8-triazaspiro[4.5]decan-2-one], the pIC50 is more than 8.52.

`NC(=O)c1cccc(CN2C(=O)N(c3ccc(-c4cn[nH]c4)cc3)CC23CCOCC3)c1` [Example 32, 3-((3-(4-(1H-pyrazol-4-yl)phenyl)-2-oxo-8-oxa-1,3-diazaspiro[4.5]decan-1-yl)methyl)benzamide] had a pIC50 of 6.60 to 7.52.

`CCc1nc(N2CC3(CCN(CC(F)F)CC3)N(Cc3cccc(F)c3C)C2=O)ccc1-c1cn[nH]c1` [Example 130, 8-(2,2-difluoroethyl)-3-(6-ethyl-5-(1H-pyrazol-4-yl)pyridin-2-yl)-1-(3-fluoro-2-methylbenzyl)-1,3,8-triazaspiro[4.5]decan-2-one] had a pIC50 of 7.52 to 8.52.

As for `COc1cc(F)ccc1CN1C(=O)N(c2ccc(-c3cn[nH]c3)cc2)CC12CCOCC2` [Example 28, 3-(4-(1H-pyrazol-4-yl)phenyl)-1-(4-fluoro-2-methoxybenzyl)-8-oxa-1,3-diazaspiro[4.5]decan-2-one], the pIC50 was 6.60 to 7.52.

Compound `COc1cccc(CN2C(=O)N(c3ccc(-c4cn[nH]c4)cc3)CC23CCN(CC(N)=O)CC3)c1` [Example 169, 2-(3-(4-(1H-pyrazol-4-yl)phenyl)-1-(3-methoxybenzyl)-2-oxo-1,3,8-triazaspiro[4.5]decan-8-yl)acetamide] gave a pIC50 of more than 8.52.

In turn, `COc1cccc(NC2C(=O)N(c3ncc(-c4cn[nH]c4)c(OC)n3)CC23CCN(C(=O)c2cnn4ccccc24)CC3)c1` (stereo not drawn) [Example 243, 2-(4-methoxy-5-(1H-pyrazol-4-yl)pyrimidin-2-yl)-4-((3-methoxyphenyl)amino)-8-(pyrazolo[1,5-a]pyridine-3-carbonyl)-2,8-diazaspiro[4.5]decan-3-one] gave a pIC50 of 5.52 to 6.60.

For `COc1cccc(CN2C(=O)N(c3ncc(-c4cn[nH]c4)c(OC)n3)CC23CCN(C(=O)C2CC(F)(F)C2)CC3)c1` [Example 209, 8-(3,3-difluorocyclo-butanecarbonyl)-3-(4-methoxy-5-(1H-pyrazol-4-yl)pyrimidin-2-yl)-1-(3-methoxybenzyl)-1,3,8-triazaspiro[4.5]decan-2-one], the pIC50 is 7.52 to 8.52.

As for `COc1cccc(CN2C(=O)N(c3ncc(-c4cn[nH]c4)c(OC)n3)CC23CCN(C(=O)CN(C)C)CC3)c1` [Example 210, 8-(2-(dimethylamino)acetyl)-3-(4-methoxy-5-(1H-pyrazol-4-yl)pyrimidin-2-yl)-1-(3-methoxybenzyl)-1,3,8-triazaspiro[4.5]decan-2-one], the pIC50 was more than 8.52.

Take `COc1cccc(NC2C(=O)N(c3ccc(-c4cn[nH]c4)cn3)CC23CCN(C(=O)CCn2cc(C)c4ccccc42)CC3)c1` (stereo not drawn) [Example 256, 2-(5-(1H-pyrazol-4-yl)pyridin-2-yl)-4-((3-methoxy-phenyl)amino)-8-(3-(3-methyl-1H-indol-1-yl)propanoyl)-2,8-diazaspiro [4.5]decan-3-one]: the pIC50 is 6.60 to 7.52.

The compound `O=C(NCC(F)(F)F)c1cccc(CN2C(=O)N(c3ccc(-c4cn[nH]c4)cc3)CC23CCOCC3)c1` [Example 38, 3-((3-(4-(1H-pyrazol-4-yl)phenyl)-2-oxo-8-oxa-1,3-diazaspiro[4.5]decan-1-yl)methyl)-N-(2,2,2-trifluoroethyl)benzamide] had a pIC50 of more than 8.52.

Regarding `COc1cccc(CN2C(=O)N(c3ccc(-c4cn[nH]c4)cc3)CC23CCN(CC(C)O)CC3)c1` (single isomer, unassigned) [Example 140, 3-(4-(1H-pyrazol-4-yl)phenyl)-8-(2-hydroxypropyl)-1-(3-methoxybenzyl)-1,3,8-triazaspiro[4.5]decan-2-one], the pIC50 is more than 8.52.

On to `CCc1nc(N2CC3(CCN(C(=O)C(C)C)CC3)N(Cc3cccc(OC)c3)C2=O)ccc1-c1cn[nH]c1` [Example 201, 3-(6-ethyl-5-(1H-pyrazol-4-yl)pyridin-2-yl)-8-isobutyryl-1-(3-methoxybenzyl)-1,3,8-triazaspiro[4.5]decan-2-one], for which the pIC50 was more than 8.52.

The compound `O=C1N(c2ccc(-c3cn[nH]c3)cc2)CC2(CCOCC2)N1Cc1ccc(F)c(F)c1` [Example 17, 3-(4-(1H-pyrazol-4-yl)phenyl)-1-(3,4-difluorobenzyl)-8-oxa-1,3-diazaspiro[4.5]decan-2-one] showed a pIC50 of 7.52 to 8.52.

`COc1cccc(CN2C(=O)N(c3ccc(-c4cn[nH]c4)c(OC)n3)CC23CCN(CC(C)(C)O)CC3)c1` [Example 148, 8-(2-hydroxy-2-methylpropyl)-3-(6-methoxy-5-(1H-pyrazol-4-yl)pyridin-2-yl)-1-(3-methoxybenzyl)-1,3,8-triazaspiro[4.5]decan-2-one]: the pIC50 was more than 8.52.

For the compound `COc1cc(F)cc(CN2C(=O)N(c3ccc(-c4cn[nH]c4)cc3)CC23CC3)c1` [Example 8, 6-(4-(1H-pyrazol-4-yl)phenyl)-4-(3-fluoro-5-methoxybenzyl)-4,6-diazaspiro[2.4]heptan-5-one], the pIC50 was more than 8.52.
